Measured values from patent US20230339939A1 (Bayer Aktiengesellschaft, priority 2020, published 2023).

Legend:
CSNK1A1 [1] = target: T1, CSNK1A1 (Homo sapiens (Human), UniProt P48729); experiment: CSNK1A1 Assay 2 (ADP-Glo, 1 μM ATP, substrate biotin-Ahx-KRRRAL-pS-VASLPGL); assay type: biochemical; conditions: median, read-out: CSNK1A1 Assay 2 IC50 [mol/l] (median)
Procedure: CSNK1A1-inhibitory activity of compounds of the present invention in presence of 1 μM adenosine-tri-phosphate (ATP) was quantified employing the CSNK1A1 assay as described in the following paragraphs. In essence, the enzyme activity is measured by quantification of the adenosine-di-phosphate (ADP), which is generated as a co-product of the enzyme reaction, via the “ADP-Glo™ Kinase Assay” kit from the company Promega. This detection system works as follows: In a first step the ATP not consumed in the kinase reaction is quantitatively converted to cAMP employing an adenylate cyclase (“ADP-Glo-reagent”), then the adenylate cyclase is stopped and the ADP generated in the kinase reaction converted to ATP which generates in a luciferase-based reaction a glow-luminescence signal (“Kinase Detection Reagent”).
(§1) Recombinant fusion protein of N-terminal Glutathion-S-Transferase (GST) and full-length human CSNK1A1, expressed by baculovirus infected insect cells and purified via Glutathion affinity chromatography, was purchased from Life Technologies (product no. PV4174) and used as enzyme. As substrate for the kinase reaction the biotinylated peptide biotin-Ahx-KRRRAL-pS-VASLPGL (C-terminus in amide form) was used which can be purchased e.g. from the company Biosyntan (Berlin-Buch, Germany).
For the assay 50 nl of a 100 fold concentrated solution of the test compound in DMSO was pipetted into a white 1536-well microtiter plate (Greiner Bio-One, Frickenhausen, Germany), 2 μL of a solution of CSNK1A1 in aqueous assay buffer [50 mM HEPES pH 7.5, 10% (v/v) glycerol, 10 mM MgCl2, 50 mM NaCl, 1 mM dithiothreitol, 0.01% (w/v) bovine serum albumin, 0.01% (v/v) Triton X-100] were added and the mixture was incubated for 15 min at 22° C. to allow pre-binding of the test compounds to the enzyme before the start of the kinase reaction. […] The concentration of CSNK1A1 was adjusted depending of the activity of the enzyme lot and was chosen appropriate to have the assay in the linear range, a typical concentrations are about 0.0375 ng/μL. The reaction was stopped by the addition of 2.5 μL of “ADP-Glo-reagent” (1:1.5 fold diluted with water) and the resulting mixture was incubated at 22° C. for 1 h to convert the ATP not consumed in the kinase reaction completely […]. Subsequently 2.5 μL of the “kinase detection reagent” (1.2 fold more concentrated than recommended by the producer) were added, the resulting mixture was incubated at 22° C. for 1 h and then the luminescence measured with a suitable measurement instrument (e.g. Viewlux™ from Perkin-Elmer). The amount of emitted light was taken as a measure for the amount of ADP generated and thereby for the activity of the CSNK1A1.

CSNK1A1 [2] = target: T1, CSNK1A1; experiment: CSNK1A1 High ATP Assay (ADP-Glo, 1 mM ATP); assay type: biochemical; conditions: median, read-out: CSNK1A1 high ATP assay IC50 [mol/l] (median)
Procedure: CSNK1A1-inhibitory activity of compounds of the present invention in presence of 1 mM adenosine-tri-phosphate (ATP) was quantified employing the CSNK1A1-high-ATP-assay as described in the following paragraphs. In essence, the enzyme activity is measured by quantification of the adenosine-di-phosphate (ADP), which is generated as a co-product of the enzyme reaction, via the “ADP-Glo™ Kinase Assay” kit from the company Promega. This detection system works as follows: In a first step the ATP not consumed in the kinase reaction is quantitatively converted to cAMP employing an adenylate cyclase (“ADP-Glo-reagent”), then the adenylate cyclase is stopped and the ADP generated in the kinase reaction converted to ATP which generates in a luciferase-based reaction a glow-luminescence signal (“Kinase Detection Reagent”).
as §1
For the assay 50 nl of a 100 fold concentrated solution of the test compound in DMSO was pipetted into a white low volume 384-well microtiter plate (Greiner Bio-One, Frickenhausen, Germany), 2 μL of a solution of CSNK1A1 in aqueous assay buffer [50 mM HEPES pH 7.5, 10% (v/v) glycerol, 10 mM MgCl2, 50 mM NaCl, 1 mM dithiothreitol, 0.01% (w/v) bovine serum albumin, 0.01% (v/v) Triton X-100] were added and the mixture was incubated for 15 min at 22° C. to allow pre-binding of the test compounds to the enzyme before the start of the kinase reaction. […] The concentration of CSNK1A1 was adjusted depending of the activity of the enzyme lot and was chosen appropriate to have the assay in the linear range, a typical concentration is about 0.4 ng/μL. The reaction was stopped by the addition of 2.5 μL of “ADP-Glo-reagent” (1:1.5 fold diluted with water) and the resulting mixture was incubated at 22° C. for 1 h to convert the ATP not consumed in the kinase reaction completely […]. Subsequently 2.5 μL of the “kinase detection reagent” (1.2 fold more concentrated than recommended by the producer) were added, the resulting mixture was incubated at 22° C. for 1 h and then the luminescence measured with a suitable measurement instrument (e.g. Viewlux™ from Perkin-Elmer). The amount of emitted light was taken as a measure for the amount of ADP generated and thereby for the activity of the CSNK1A1.

T1 sequence (P48729 whole entry): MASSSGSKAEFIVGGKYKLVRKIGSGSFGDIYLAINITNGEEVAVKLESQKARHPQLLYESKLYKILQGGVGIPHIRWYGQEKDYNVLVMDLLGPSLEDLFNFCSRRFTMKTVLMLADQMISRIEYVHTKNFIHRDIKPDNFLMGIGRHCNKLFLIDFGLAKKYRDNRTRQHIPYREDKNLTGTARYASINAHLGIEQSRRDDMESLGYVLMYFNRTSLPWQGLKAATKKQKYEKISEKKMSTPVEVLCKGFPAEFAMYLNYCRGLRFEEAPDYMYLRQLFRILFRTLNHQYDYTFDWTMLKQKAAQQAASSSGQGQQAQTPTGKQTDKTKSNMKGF

O=C(Cc1ccc(F)cc1)Nc1cc(-c2[nH]c3cccnc3c2-c2cccc(F)c2)ccn1 [Example 15, 2-(4-fluorophenyl)-N-{4-[3-(3-fluorophenyl)-1H-pyrrolo[3,2-b]pyridin-2-yl]pyridin-2-yl}acetamide]
IC50 (CSNK1A1 [1]): 1.87 nM | IC50 (CSNK1A1 [2]): 87.7 nM

O=C(Cc1ccc(F)cc1)Nc1cc(-c2[nH]c3cccnc3c2-c2ncccn2)ccn1 [Example 16, 2-(4-fluorophenyl)-N-{4-[3-(pyrimidin-2-yl)-1H-pyrrolo[3,2-b]pyridin-2-yl]pyridin-2-yl}acetamide]
IC50 (CSNK1A1 [1]): 4.77 nM | IC50 (CSNK1A1 [2]): 97.9 nM

O=C(Cc1ccc(F)cc1)Nc1cc(-c2[nH]c3cccnc3c2-c2ccc(Cl)s2)ccn1 [Example 17, N-{4-[3-(5-chlorothiophen-2-yl)-1H-pyrrolo[3,2-b]pyridin-2-yl]pyridin-2-yl}-2-(4-fluorophenyl)acetamide]
IC50 (CSNK1A1 [1]): 1.88 nM | IC50 (CSNK1A1 [2]): 87.3 nM

O=C(Cc1ccc(F)cc1)Nc1cc(-c2[nH]c3ccnnc3c2-c2ccccn2)ccn1 [Example 21, 2-(4-fluorophenyl)-N-{4-[7-(pyridin-2-yl)-5H-pyrrolo[3,2-c]pyridazin-6-yl]pyridin-2-yl}acetamide]
IC50 (CSNK1A1 [1]): 1.66 nM | IC50 (CSNK1A1 [2]): 25.1 nM

O=C(Cc1ccc(F)cc1)Nc1cc(-c2[nH]c3c(Cl)ccnc3c2-c2ccccn2)ccn1 [Example 22, N-{4-[7-chloro-3-(pyridin-2-yl)-1H-pyrrolo[3,2-b]pyridin-2-yl]pyridin-2-yl}-2-(4-fluorophenyl)acetamide]
IC50 (CSNK1A1 [1]): 1.6 nM | IC50 (CSNK1A1 [2]): 21.8 nM

O=C(Cc1ccc(F)cc1)Nc1cc(-c2[nH]c3ccc(Cl)nc3c2-c2ccccn2)ccn1 [Example 23, N-{4-[5-chloro-3-(pyridin-2-yl)-1H-pyrrolo[3,2-b]pyridin-2-yl]pyridin-2-yl}-2-(4-fluorophenyl)acetamide]
IC50 (CSNK1A1 [1]): 0.941 nM | IC50 (CSNK1A1 [2]): 40.9 nM

Cc1cc2[nH]c(-c3ccnc(NC(=O)Cc4ccc(F)cc4)c3)c(-c3ccccn3)c2nc1F [Example 27, N-{4-[5-fluoro-6-methyl-3-(pyridin-2-yl)-1H-pyrrolo[3,2-b]pyridin-2-yl]pyridin-2-yl}-2-(4-fluorophenyl)acetamide]
IC50 (CSNK1A1 [1]): 1.6 nM | IC50 (CSNK1A1 [2]): 11.2 nM

COc1ccnc2c(-c3ccccn3)c(-c3ccnc(NC(=O)Cc4ccc(F)cc4)c3)[nH]c12 [Example 31, 2-(4-fluorophenyl)-N-{4-[7-methoxy-3-(pyridin-2-yl)-1H-pyrrolo[3,2-b]pyridin-2-yl]pyridin-2-yl}acetamide]
IC50 (CSNK1A1 [1]): 2.5 nM | IC50 (CSNK1A1 [2]): 5.63 nM

COc1ccc2[nH]c(-c3ccnc(NC(=O)Cc4ccc(F)cc4)c3)c(-c3ccccn3)c2n1 [Example 32, 2-(4-fluorophenyl)-N-{4-[5-methoxy-3-(pyridin-2-yl)-1H-pyrrolo[3,2-b]pyridin-2-yl]pyridin-2-yl}acetamide]
IC50 (CSNK1A1 [1]): 2.5 nM | IC50 (CSNK1A1 [2]): 23.3 nM

C=Cc1ccnc2c(-c3ccccn3)c(-c3ccnc(NC(=O)Cc4ccc(F)cc4)c3)[nH]c12 [Example 33, N-{4-[7-ethenyl-3-(pyridin-2-yl)-1H-pyrrolo[3,2-b]pyridin-2-yl]pyridin-2-yl}-2-(4-fluorophenyl)acetamide]
IC50 (CSNK1A1 [1]): 3.97 nM | IC50 (CSNK1A1 [2]): 29 nM

CCc1ccnc2c(-c3ccccn3)c(-c3ccnc(NC(=O)Cc4ccc(F)cc4)c3)[nH]c12 [Example 34, N-{4-[7-ethyl-3-(pyridin-2-yl)-1H-pyrrolo[3,2-b]pyridin-2-yl]pyridin-2-yl}-2-(4-fluorophenyl)acetamide]
IC50 (CSNK1A1 [1]): 3.08 nM | IC50 (CSNK1A1 [2]): 13.5 nM

O=C(Cc1ccc(F)cc1)Nc1cc(-c2[nH]c3c(C4CC4)ccnc3c2-c2ccccn2)ccn1 [Example 35, N-{4-[7-cyclopropyl-3-(pyridin-2-yl)-1H-pyrrolo[3,2-b]pyridin-2-yl]pyridin-2-yl}-2-(4-fluorophenyl)acetamide]
IC50 (CSNK1A1 [1]): 2.79 nM | IC50 (CSNK1A1 [2]): 6.39 nM

COCCc1ccnc2c(-c3ccccn3)c(-c3ccnc(NC(=O)Cc4ccc(F)cc4)c3)[nH]c12 [Example 36, 2-(4-fluorophenyl)-N-{4-[7-(2-methoxyethyl)-3-(pyridin-2-yl)-1H-pyrrolo[3,2-b]pyridin-2-yl]pyridin-2-yl}acetamide]
IC50 (CSNK1A1 [1]): 14.8 nM | IC50 (CSNK1A1 [2]): 31.8 nM

CN1CCN(c2ccnc3c(-c4ccccn4)c(-c4ccnc(NC(=O)Cc5ccc(F)cc5)c4)[nH]c23)CC1 [Example 38, 2-(4-fluorophenyl)-N-{4-[7-(4-methylpiperazin-1-yl)-3-(pyridin-2-yl)-1H-pyrrolo[3,2-b]pyridin-2-yl]pyridin-2-yl}acetamide]
IC50 (CSNK1A1 [1]): 3.32 nM | IC50 (CSNK1A1 [2]): 19.8 nM

CN1CCC(N(C)c2ccnc3c(-c4ccccn4)c(-c4ccnc(NC(=O)Cc5ccc(F)cc5)c4)[nH]c23)CC1 [Example 39, 2-(4-fluorophenyl)-N-(4-{7-[methyl(1-methylpiperidin-4-yl)amino]-3-(pyridin-2-yl)-1H-pyrrolo[3,2-b]pyridin-2-yl}pyridin-2-yl)acetamide]
IC50 (CSNK1A1 [1]): 3.49 nM | IC50 (CSNK1A1 [2]): 32.9 nM

O=C(Cc1ccc(F)cc1)Nc1cc(-c2[nH]c3c(N4CCCC4=O)ccnc3c2-c2ccccn2)ccn1 [Example 40, 2-(4-fluorophenyl)-N-{4-[7-(2-oxopyrrolidin-1-yl)-3-(pyridin-2-yl)-1H-pyrrolo[3,2-b]pyridin-2-yl]pyridin-2-yl}acetamide]
IC50 (CSNK1A1 [1]): 6.26 nM | IC50 (CSNK1A1 [2]): 30.1 nM

Cc1cc(CC(=O)Nc2cc(-c3[nH]c4cccnc4c3-c3ccccn3)ccn2)ccc1F [Example 41, 2-(4-fluoro-3-methylphenyl)-N-{4-[3-(pyridin-2-yl)-1H-pyrrolo[3,2-b]pyridin-2-yl]pyridin-2-yl}acetamide]
IC50 (CSNK1A1 [1]): 4.03 nM | IC50 (CSNK1A1 [2]): 19 nM

O=C(Cc1ccc(Cl)cc1)Nc1cc(-c2[nH]c3cccnc3c2-c2ccccn2)ccn1 [Example 42, 2-(4-chlorophenyl)-N-{4-[3-(pyridin-2-yl)-1H-pyrrolo[3,2-b]pyridin-2-yl]pyridin-2-yl}acetamide]
IC50 (CSNK1A1 [1]): 1.23 nM | IC50 (CSNK1A1 [2]): 7.14 nM

O=C(Cc1ccccc1)Nc1cc(-c2[nH]c3cccnc3c2-c2ccccn2)ccn1 [Example 46, 2-phenyl-N-(4-(3-(pyridin-2-yl)-1H-pyrrolo[3,2-b]pyridin-2-yl)pyridin-2-yl)acetamide]
IC50 (CSNK1A1 [1]): 2.25 nM | IC50 (CSNK1A1 [2]): 14.6 nM

O=C(Cc1ccc(F)cc1)Nc1cc(-c2[nH]c3cccnc3c2-c2ncccn2)ccn1 [Example 51, 2-(4-fluorophenyl)-N-{4-[3-(pyrimidin-2-yl)-1H-pyrrolo[3,2-b]pyridin-2-yl]pyridin-2-yl}acetamide]
IC50 (CSNK1A1 [1]): 7.93 nM | IC50 (CSNK1A1 [2]): 180 nM

CC(C(=O)Nc1cc(-c2[nH]c3cc(Cl)cnc3c2-c2ccccn2)ccn1)c1ccc(F)cc1 (stereo not drawn) [Example 52, N-{4-[6-chloro-3-(pyridin-2-yl)-1H-pyrrolo[3,2-b]pyridin-2-yl]pyridin-2-yl}-2-(4-fluorophenyl)propanamide]
IC50 (CSNK1A1 [1]): 6.26 nM | IC50 (CSNK1A1 [2]): 382 nM
